{"source": "paper PMC4160570", "about": "“Effects of proarrhythmic drugs on relaxation time and beating pattern in rat engineered heart tissue” (Basic Research in Cardiology, 2014)", "key": {"[1]": {"tested_on": "rat engineered heart tissue (EHT)", "conditions": "cited from earlier work"}, "[2]": {"tested_on": "rat engineered heart tissue (EHT)", "assay": "Video-optical analysis of contractile parameters of spontaneously beating rat EHTs (50 nM epinephrine)", "conditions": "for effect on T2, drug alone: 1–1,000 nM, even at high concentrations (1,000 nM); for concentration response curve (T2) in the presence of 4AP: 4AP 3 mM; for significant T2 prolongation (p<0.05 and at least 15 % vs baseline): 1-, 10-, 100-fold FTPC, 50 nM epinephrine, n = 4–8"}, "[3]": {"tested_on": "rat engineered heart tissue (EHT)", "assay": "Ca^2+ transients (Fura-2) and contraction of EHTs under electrical stimulation and perfusion", "assay_type": "cell-based", "conditions": "for effect on relaxation time T2 under electrical stimulation / effect on intracellular Ca^2+ transients (duration): 2 Hz, 4AP 10 mM, epinephrine 50 nM; for effect on intracellular Ca^2+ transients (duration): in absence and presence of 4AP; for reversibility of effects: after washout; for time course of effects under continuous electrical stimulation and perfusion: quinidine 100 µM, erythromycin 1 mM", "method": "Intracellular Ca^2+-transients were analyzed in parallel with force under electrical stimulation and continuous perfusion using a novel setup as described previously. The setup consisted of an inverted microscope, a temperature- and O2/CO2-controlled chamber for the 24-well EHT plate, a flow rate-controlled perfusion system, platinum–iridium wire electrodes for field stimulation, a fluorescence light source (IonOptix Hyperswitch), a photomultiplier, video cameras and software (both IonOptix) for the evaluation of contractile activity (edge detection mode). Experiments were done at 4 ml flow/min (per well) and 2–4 Hz stimulation in modified Tyrode’s solution.\nFor Fura loading, EHTs were incubated in Tyrode’s solution containing 10 µM Fura2-AM (Invitrogen F1221) and Cremophor EL ([…]; Sigma C5135) for 2 h at 37 °C. The ratio of light emission (510 nm) at excitation with 340 and 380 nm light (F340/380 ratio) was used as an index of cytosolic Ca^2+-concentration.\nTo differentiate between effects on beating rate and relaxation and to analyse intracellular Ca^2+-transients in addition to force, two drugs were additionally analysed under pacing at defined beating rate using a novel modified IonOptix (IonOptix Corporation, Milton, MA, USA) setup. This custom-made setup allowed continuous electrical stimulation and perfusion of EHTs during the measurement. The setup consisted of an inverted microscope, a temperature- and O2/CO2-controlled chamber for the 24-well EHT plate mounted on the microscope stage, a flow rate-controlled perfusion system, platinum wire electrodes for field stimulation and a video camera and software (both IonOptix) for the evaluation of contractile activity (edge detection mode). Experiments were done under a flow rate of approximately 4 ml/min (per well) and stimulation at 2-4 Hz and 7 V. Measurements were done in a modified Tyrode’s solution (mM: NaCl 120, KCl 5.4, MgCl2 1.0, CaCl2 1.8, NaH2PO4 0.4, NaHCO3 22.6, glucose 5.0, Na2EDTA 0.05, ascorbic acid 0.3). EHTs were equilibrated for 20 min in Tyrode’s solution (baseline) and then exposed to the respective drug for up to 20 min. Reversibility of drug effects was determined after 20 min perfusion in drug-free Tyrode’s solution.\nFor measurement of intracellular Ca^2+-transients, EHTs were incubated in Tyrode’s solution containing 10 µM Fura2-AM (Invitrogen F1221) and the non-ionic detergent Cremophor EL (0.0075%; Sigma C5135) for 2 h at 37 °C. After washing the EHTs for 10 min in Tyrode’s solution, measurements under perfusion and stimulation of Ca^2+-transients were performed in the same way as for force of contraction, but signals were evaluated by a 10x objective (instead of 1.25x for force) and a photomultiplier.The ratio of the emission intensity of light (510 nm) from EHTs alternatively excited at 340 and 380 nm (F340/380 ratio) was used as an index of cytosolic Ca^2+-concentration. Data were evaluated either with the IonOptix software or a customized software or manually when peaks were severely deformed."}, "Ito [4]": {"tested_on": "Ito", "set-up": "method as in PMID 17446473", "conditions": "adult rat ventricular myocytes; cited from earlier work"}, "[5]": {"tested_on": "rat engineered heart tissue (EHT)", "assay": "Action potentials recorded with intracellular microelectrodes in intact, field-stimulated EHTs", "assay_type": "cell-based", "method": "Action potentials (APs) were recorded with standard intracellular microelectrodes in intact EHTs. […]. Preparations were field-stimulated for at least 1 h (2 Hz) before data acquisition. APs were analyzed off-line using the LabChart® software (ADInstruments, Spechbach, Germany)."}, "[6]": {"tested_on": "rat engineered heart tissue (EHT)"}, "IKr": {"tested_on": "IKr", "conditions": "read-out: IC50 (IKr blocker); cited from earlier work"}, "mouse": {"tested_on": "mouse", "conditions": "in vivo; cited from earlier work"}, "rat": {"tested_on": "rat", "conditions": "in vivo; cited from earlier work"}, "IKs": {"tested_on": "IKs", "set-up": "method as in PMID 23896226", "conditions": "read-out: IC50 (IKs blocker); cited from earlier work"}, "ICa": {"tested_on": "ICa", "set-up": "method as in PMID 23896226", "conditions": "cited from earlier work"}, "Ito [7]": {"tested_on": "Ito", "set-up": "method as in PMID 23896226", "conditions": "cited from earlier work"}}, "note": "Like-named read-outs stand apart in the source and are kept apart here."}
{"smiles": "CCS(=O)(=O)N(C)[C@H]1c2cc(C#N)ccc2OC(C)(C)[C@@H]1O", "note": "(racemic) [chromanol 293b]", "values": [{"measurement": "effect on relaxation time T2 in a previous EHT study", "setting": "[1]", "result": "caused concentration-dependent prolongations of relaxation time T2"}, {"measurement": "prolongation of relaxation (T2)", "setting": "[1]; seen previously in EHTs", "result": "+710%"}]}
{"smiles": "Nc1ccncc1", "note": "[4-aminopyridine (4AP), 4-aminopyridine]", "values": [{"measurement": "concentration starting to prolong T2 relative to IC50 in adult rat cardiac myocytes", "setting": "[2]; 3 mM", "result": 3, "unit": "fold IC50"}, {"measurement": "effect on beating pattern", "setting": "[2]; 4AP 10 mM", "result": "induced beat-to-beat irregularities, variations of twitch amplitude and aftercontractions"}, {"measurement": "prolongation of relaxation (T2)", "setting": "[2]; 4AP 30 mM, cumulative, 45 min per concentration", "result": "+502%"}, {"measurement": "concentration at which T2 prolongation reaches significance", "setting": "[2]; cumulative concentrations, 45 min each", "result": 3, "unit": "mM"}, {"measurement": "effect on relaxation time T2 under electrical stimulation", "setting": "[3]", "result": "increased T2"}, {"measurement": "effect on intracellular Ca^2+ transients (duration)", "setting": "[3]", "result": "prolonged intracellular Ca^2+ transients"}, {"measurement": "IC50", "setting": "Ito [4]", "result": 980, "unit": "µM"}, {"measurement": "action potential duration (APD90)", "setting": "[5]; 4AP 10 mM, 2 Hz, increased from a mean of 113 ms (vehicle control)", "result": 175, "unit": "ms"}]}
{"smiles": "c1ccc(C2(c3ccccc3)CC2C2=NCCN2)cc1", "note": "(centres unmarked) [Cibenzoline]", "values": [{"measurement": "published IKs IC50 relative to threshold for group 1 or 2 effects", "setting": "[6]", "result": "at or below the threshold for group 1 or 2 effects"}, {"measurement": "significant T2 prolongation (p<0.05 and at least 15 % vs baseline)", "setting": "[6]; Wistar, rat", "result": "Significant T2 prolongations"}]}
{"smiles": "COc1ccc([C@@H]2Sc3ccccc3N(CCN(C)C)C(=O)[C@@H]2OC(C)=O)cc1", "note": "[Diltiazem]", "values": [{"measurement": "negative inotropic effect", "setting": "[6]", "result": "lack of significant negative inotropic effects"}, {"measurement": "T2-effective concentrations", "setting": "[6]; Wistar, rat", "result": 100, "unit": "fold FTPC"}, {"measurement": "significant T2 prolongation (p<0.05 and at least 15 % vs baseline)", "setting": "[6]; Wistar, rat", "result": "Significant T2 prolongations"}]}
{"smiles": "Cc1cccc(CCN2CCC(C(=O)c3ccc(NS(C)(=O)=O)cc3)CC2)n1", "note": "[E-4031]", "values": [{"measurement": "effect on T2 at 100-fold IC50 concentrations", "setting": "[2]", "result": "[…]"}, {"measurement": "effect on T2, drug alone", "setting": "[2]", "result": "Neither E-4031 nor HMR-1556 affected T2"}, {"measurement": "concentration response curve (T2) in the presence of 4AP", "setting": "[2]", "result": "[…]"}, {"measurement": "IC50", "setting": "IKr", "result": "[…]"}]}
{"smiles": "CC[C@H]1OC(=O)[C@H](C)[C@@H](O[C@H]2C[C@@](C)(OC)[C@@H](O)[C@H](C)O2)[C@H](C)[C@@H](O[C@@H]2O[C@H](C)C[C@H](N(C)C)[C@H]2O)[C@](C)(O)C[C@@H](C)C(=O)[C@H](C)[C@@H](O)[C@]1(C)O", "note": "[Erythromycin]", "values": [{"measurement": "significant T2 prolongation (p<0.05 and at least 15 % vs baseline)", "setting": "[2]", "result": "Significant T2 prolongations"}, {"measurement": "irregular beating as the primary effect", "setting": "[2]; sinusoidal fluctuation of twitch amplitudes, time dependent", "result": "induced irregular beating"}, {"measurement": "reversibility of effects", "setting": "[3]", "result": "fully reversible after washout"}, {"measurement": "time course of effects under continuous electrical stimulation and perfusion", "setting": "[3]", "result": "first prolonged T2, reduced force and then induced an autonomous chaotic contraction pattern"}, {"measurement": "effect on relaxation time T2 in a previous EHT study", "setting": "[1]", "result": "caused concentration-dependent prolongations of relaxation time T2"}, {"measurement": "LD50", "setting": "mouse", "result": "4.600 mg∙kg^-1 (rat, p. o.) 2.580 mg∙kg^-1 (mouse, p. o.)"}, {"measurement": "LD50", "setting": "rat", "result": "4.600 mg∙kg^-1 (rat, p. o.) 2.580 mg∙kg^-1 (mouse, p. o.)"}]}
{"smiles": "CN([C@H]1c2cc(OCCCC(F)(F)F)ccc2OC(C)(C)[C@@H]1O)S(C)(=O)=O", "note": "[HMR-1556]", "values": [{"measurement": "effect on T2, drug alone", "setting": "[2]", "result": "Neither E-4031 nor HMR-1556 affected T2"}, {"measurement": "concentration response curve (T2) in the presence of 4AP", "setting": "[2]", "result": "shifted to the left"}, {"measurement": "IC50", "setting": "IKs", "result": 10.5, "unit": "nM"}, {"measurement": "IC50", "setting": "ICa", "result": 27.5, "unit": "µM"}, {"measurement": "IC50", "setting": "Ito [7]", "result": 33.9, "unit": "µM"}]}
{"smiles": "CC(=O)N1CCN(c2ccc(OCC3COC(Cn4ccnc4)(c4ccc(Cl)cc4Cl)O3)cc2)CC1", "note": "(centres unmarked) [Ketoconazole]", "values": [{"measurement": "significant T2 prolongation (p<0.05 and at least 15 % vs baseline)", "setting": "[6]; Wistar, rat", "result": "Significant T2 prolongations"}, {"measurement": "LD50", "setting": "rat", "result": "166 mg∙kg^-1 (rat, p. o.)"}]}
{"smiles": "C=C[C@H]1C[N@@]2CC[C@H]1C[C@@H]2[C@@H](O)c1ccnc2ccc(OC)cc12", "note": "[Quinidine]", "values": [{"measurement": "T2-threshold concentration", "setting": "[2]", "result": 100, "unit": "µM"}, {"measurement": "published IC50 values for hERG and Ito relative to threshold for T2 prolongation or irregularity", "setting": "[2]", "result": "at or below the threshold for T2 prolongation or irregularity"}, {"measurement": "published IKs IC50 relative to threshold for group 1 or 2 effects", "setting": "[2]", "result": "at or below the threshold for group 1 or 2 effects"}, {"measurement": "significant T2 prolongation (p<0.05 and at least 15 % vs baseline)", "setting": "[2]", "result": "Significant T2 prolongations"}, {"measurement": "reversibility of effects", "setting": "[3]", "result": "fully reversible after washout"}, {"measurement": "time course of effects under continuous electrical stimulation and perfusion", "setting": "[3]", "result": "marked, time-dependent prolongation of T2 and a reduction in force, which was then followed by the development of a slower rhythm independent of pacing"}, {"measurement": "effect on relaxation time T2 in a previous EHT study", "setting": "[1]", "result": "caused concentration-dependent prolongations of relaxation time T2"}, {"measurement": "action potential duration (APD90)", "setting": "[5]; quinidine 100 µM, increased from 179 ms", "result": 232, "unit": "ms"}]}
{"smiles": "COc1ccc(CCN(C)CCCC(C#N)(c2ccc(OC)c(OC)c2)C(C)C)cc1OC", "note": "(centres unmarked) [Verapamil]", "values": [{"measurement": "effect on the T2-prolonging effect of 4AP", "setting": "[2]", "result": "no discernible effect"}, {"measurement": "effect on force (group 3)", "setting": "[6]", "result": "decrease in force"}]}
{"smiles": "CNC[C@H](O)c1ccc(O)c(O)c1", "note": "[epinephrine]", "values": [{"measurement": "change of frequency of beating in the burst", "setting": "[2]; epinephrine 50 nM", "result": "15–20%"}, {"measurement": "beating frequency in the bursts", "setting": "[2]; epinephrine 50 nM, 4.4-4.6 Hz without drug", "result": "5-5.6 Hz"}, {"measurement": "effect on relaxation time T2 under electrical stimulation", "setting": "[3]", "result": "shortened T2"}, {"measurement": "effect on intracellular Ca^2+ transients (duration)", "setting": "[3]", "result": "shortened it"}]}
